Reference: PubChem BioAssay AID330 (DTP/NCI, 2004)
“And” between values parts separate entries of the source, which are not always exact repeats. Identical values can stand only once. Inconclusive results and toxic doses are left out.

Test system: P388 leukemia ip, CD2F1 mice, survival T/C
Assay: NCI In Vivo Anticancer Drug Screen. Data for tumor model P388 Leukemia (intraperitoneal) in CD2F1 (CDF1) mice
Conditions: endpoint: median survival time, higher = longer survival
Summary of the method: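 Mice carrying the transplanted tumor received test compound or vehicle. Survival was recorded in each group, and the value is the treated-group measurement divided by that of the vehicle-treated control group.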

[1] = dose: 100.0 mg/kg/injection, schedule: Q04DX003 (ip), vehicle: saline with Tween-80
[2] = dose: 50.0 mg/kg/injection, schedule: Q01DX005 (ip), vehicle: Klucel (hydroxypropylcellulose) (HPC)
[3] = dose: 100.0 mg/kg/injection, schedule: Q01DX005 (ip), vehicle: Klucel (hydroxypropylcellulose) (HPC)
[4] = dose: 60.0 mg/kg/injection, schedule: Q01DX005 (ip), vehicle: saline with Tween-80
[5] = dose: 120.0 mg/kg/injection, schedule: Q01DX005 (ip), vehicle: saline with Tween-80
[6] = dose: 240.0 mg/kg/injection, schedule: Q01DX005 (ip), vehicle: saline with Tween-80
[7] = dose: 200.0 mg/kg/injection, schedule: Q01DX005 (ip), vehicle: Klucel (hydroxypropylcellulose) (HPC)
[8] = dose: 50.0 mg/kg/injection, schedule: Q01DX009 (ip), vehicle: saline with Tween-80
[9] = dose: 25.0 mg/kg/injection, schedule: Q04DX003 (ip), vehicle: saline with Tween-80
[10] = dose: 200.0 mg/kg/injection, schedule: Q01DX009 (ip), vehicle: saline with Tween-80

How did the T/C [1] turn out when `O=[N+]([O-])c1cc2[nH]cnc2c([N+](=O)[O-])c1Nc1ccc(O)cc1` was run?
Its T/C is 87 % of control.

What about the T/C (dose: 200.0 mg/kg/injection, schedule: Q04DX003 (ip), vehicle: saline with Tween-80) of the same compound?
Its T/C is 95 % of control.

What about the T/C (dose: 400.0 mg/kg/injection, schedule: Q04DX003 (ip), vehicle: saline with Tween-80) of the same compound?
Its T/C is 101 % of control.

Which T/C [2] does the source give for `c1ccc2c(c1)C1CC3N=NC1C23` (centres undefined) here?
Its T/C is 105 % of control.

And the T/C [3]?
Its T/C is 107 % of control.

Which results are given for `CCOC(=O)NC(c1ccc(C(NC(=O)OCC)P(=O)(O)NC23CC4CC(CC(C4)C2)C3)cc1)P(=O)(O)NC12CC3CC(CC(C3)C1)C2` (centres undefined)?
T/C [4]: 105 % of control; T/C [5]: 105 % of control; T/C [6]: 98 % of control

What does the source list for `CCOC(=O)C1=CNc2c(C#N)cnn2C12C(=O)Oc1ccc(OC)cc12` (centres undefined)?
T/C (dose: 25.0 mg/kg/injection, schedule: Q01DX005 (ip), vehicle: Klucel (hydroxypropylcellulose) (HPC)): 109 % of control; T/C [2]: 105 % of control; T/C [3]: 105 % of control; T/C [7]: 105 % of control

Which results are given for `CCOP(=O)(O)SP(=O)(O)OCC.[Zn+2]`?
T/C (dose: 25.0 mg/kg/injection, schedule: Q01DX009 (ip), vehicle: saline with Tween-80): 109 % of control; T/C [8]: 103 % of control and 115 % of control

With `CC(=O)OCC1OC(N(O)Cc2ccccc2)C(OC(C)=O)C(OC(C)=O)C1OC(C)=O` (centres undefined) as the compound, how does the T/C [2] read?
The T/C was 100 % of control.

What about the T/C [3] of the same compound?
The T/C was 95 % of control.

And the T/C [7]?
The T/C was 86 % of control.

What does the source list for `C1COC(NC2CC3CCC2C3)=N1` (centres undefined)?
T/C (dose: 6.25 mg/kg/injection, schedule: Q04DX003 (ip), vehicle: saline with Tween-80): 100 % of control; T/C (dose: 12.5 mg/kg/injection, schedule: Q04DX003 (ip), vehicle: saline with Tween-80): 100 % of control; T/C [9]: 100 % of control

With `CCOc1c(N=Nc2cccc(Cl)c2)c(C)nn1C(N)=S` as the compound, how does the T/C (dose: 60.0 mg/kg/injection, schedule: Q01DX005 (ip), vehicle: Klucel + Tween-80) read?
Its T/C is 102 % of control.

What about the T/C (dose: 120.0 mg/kg/injection, schedule: Q01DX005 (ip), vehicle: Klucel + Tween-80) of the same compound?
The T/C was 93 % of control.

What about the T/C (dose: 240.0 mg/kg/injection, schedule: Q01DX005 (ip), vehicle: Klucel + Tween-80) of the same compound?
The T/C was 95 % of control.

With `Clc1cccc(O[Si]23OCCN(CCO2)CCO3)c1` as the compound, how does the T/C [2] read?
Its T/C is 109 % of control.

And the T/C [3]?
Its T/C is 106 % of control.

And the T/C [7]?
Its T/C is 102 % of control.

Which results are given for `CC(=O)N[C@H]1CCC2[C@@H]3CCC4=CC(=O)NCC[C@]4(C)C3CC[C@@]21C` (some centres undefined)?
T/C [4]: 95 % of control; T/C [5]: 92 % of control; T/C [6]: 94 % of control

What does the source list for `COc1cc(/C=C(/C)[N+](=O)[O-])cc(Br)c1OC`?
T/C [9]: 108 % of control; T/C (dose: 50.0 mg/kg/injection, schedule: Q04DX003 (ip), vehicle: saline with Tween-80): 109 % of control; T/C [1]: 109 % of control

`CN(C)c1ccc(Sc2ccc3nc(N)nc(N)c3c2)cc1` was tested. Which T/C [8] did it give?
Its T/C is 95 % of control.

What about the T/C [10] of the same compound?
Its T/C is 174 % of control.

And the T/C (dose: 400.0 mg/kg/injection, schedule: Q01DX009 (ip), vehicle: saline with Tween-80)?
Its T/C is 117 % of control.

How did the T/C (dose: 60.0 mg/kg/injection, schedule: Q01DX005 (ip), vehicle: saline) turn out when `O=C1C2CSCN2C(=O)CN1CCN1CCOCC1` (centres undefined) was run?
The T/C was 100 % of control.

What about the T/C (dose: 120.0 mg/kg/injection, schedule: Q01DX005 (ip), vehicle: saline) of the same compound?
Its T/C is 100 % of control.

What about the T/C (dose: 240.0 mg/kg/injection, schedule: Q01DX005 (ip), vehicle: saline) of the same compound?
Its T/C is 100 % of control.

How did the T/C [2] turn out when `CC(C)(C)OC(=O)N(C=O)C(Cc1c[nH]c2ccccc12)C(=O)O` (centres undefined) was run?
The T/C was 100 % of control.

What about the T/C [3] of the same compound?
Its T/C is 103 % of control.

And the T/C [7]?
Its T/C is 99 % of control.

What does the source list for `Cc1nc(SCC(=O)O)n[nH]1`?
T/C [8]: 103 % of control; T/C (dose: 100.0 mg/kg/injection, schedule: Q01DX009 (ip), vehicle: saline with Tween-80): 103 % of control; T/C [10]: 101 % of control
